One may read the CC50 as the concentration at which the toxic effect on the cells reaches its halfway point. Broadly, the IC50 is the point on the concentration scale where inhibition reaches its midpoint.

Series [1] relates to CYPs 3A4, 2D6 and 2C9. Description: Stability of acetal prodrugs to CYPs. The following applies: CYP 3A4, 2D6, 2C9, NADPH-regenerating system, up to 4 h.
Series [2] addresses cruzain (Trypanosoma cruzi, UniProt P25779). As to the kind of experiment: biochemical. The following applies: pH 7.5. The essentials:
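Fluorogenic assay at 25 °C following AMC release (ex 360/em 460 nm), with typically 0.2 nM cruzain and 10% DMSO, at pH 7.5 or 5.5 buffer with 5 mM DTT.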

In series [3] the test system is SARS-CoV-2 in Vero E6 cells. As to the kind of experiment: Anti-CoV-2 activity in Vero E6 cells. Type of series: cell-based.
Series [4] relates to SARS-CoV-2 in A549/ACE2 cells. Type of series: cell-based. To be noted: read-out: Anti-CoV-2 EC50 A549/ACE2 Cells.
In series [5] the test system is T. b. brucei bloodstream forms. As to the kind of experiment: Growth of axenic cultures of T. b. brucei bloodstream forms (BSFs). The following applies: read-out: EC50 T. b. brucei BSF; axenic culture.
Method: Selected cruzain inhibitors were evaluated in axenic cell cultures of T. b. brucei and T. cruzi. Procyclic trypomastigotes of T. b. brucei (ATCC PRA-381) were grown in the SDM-79 medium at 26° C., and bloodstream forms (ATCC PRA-383) were grown at 37° C. in the HMI-9 medium at 5% C02. […] Both forms of T. b. brucei and T. cruzi were grown in media containing 10% fetal bovine serum (FBS) and penicillin/streptomycin (50 U mL^−1). […] Control samples contained equal amounts of DMSO. T. b. brucei and T. cruzi (5 mL in flask cultures) were seeded at ˜3×10^6 cells and diluted daily, maintaining a mid-log growth phase for up to 120 h. […] After each cell dilution, fresh compound or an equal volume of DMSO (control samples) was supplemented into the cultures, while maintaining a constant concentration of each inhibitor. Cell counts were scored using a Z2 Coulter Counter.
In vitro Cell Assays. Bloodstream form T. b. brucei strain SM427 was grown in HM1-9 medium that included fetal bovine serum (10%) and antibiotics (100 U/mL penicillin-streptomycin, Gibco™). Inhibitors dissolved in 100% (v/v) DMSO stock solutions were added at final concentrations of 0.5-20 μM (final concentrations of DMSO were <1% (v/v)). T. b. brucei were seeded at ˜1×10^6 cells at 37° C., and diluted daily to maintain a log phase of growth for up to 96 h. […] After each dilution, the cell cultures were supplemented with inhibitor or DMSO (control) to keep concentrations constant. Cell density was determined and graphed as previously reported.^36 Trypanosomes were quantified using a Z2 Coulter Counter, and values of EC50 were determined after 3-4 days of treatment by the interpolation method of Huber and Koella.^37
Series [6] deals with T. cruzi (Ca-I/72) in C2C12 murine cardiomyoblasts. Description: T. cruzi-infected murine cardiomyoblasts (C2C12). Type of series: cell-based, Trypanosoma cruzi. The following applies: C2C12 murine cardiomyoblasts, read-out: EC50 T. cruzi-infected cardiomyoblasts. The essentials:
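C2C12 mouse cardiomyoblasts infected with T. cruzi Ca-I/72 (10^3 and 10^4 parasites) and exposed to 3-fold serial dilutions of inhibitor from a 10 μM maximum, 48 h at 37° C. After PFA fixation and DAPI staining, automated imaging quantified parasites and host cells, giving EC50 and host CC50.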

For series [7], the system named is T. cruzi epimastigotes (strain Y). The following applies: Ndao et al. (2014), read-out: trypanocidal activity EC50; cited from earlier work.
Series [8] concerns human dermal fibroblasts. As to the kind of experiment: Human cell toxicity, resazurin viability. The series is classed as cell-based. The procedure, abridged:
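Primary human dermal fibroblasts, 2400 cells/well, exposed in duplicate to inhibitors at final 0.001-0.1 mM in 1% DMSO (1% DMSO control) for 48 h at 37 °C. Resazurin then added and viability read by fluorescence (544/590 nm) after further 24 h.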

Series [9] has as its system C2C12 mouse cardiomyoblast cell line. Description: Host cell cytotoxicity in the T. cruzi infection model. The series is classed as cell-based. The following applies: host cardiomyoblasts; read-out: C2C12 Cytotoxicity CC50. The procedure, abridged:
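C2C12 murine cardiomyoblasts infected with T. cruzi were incubated with compound 48 h at 37 °C, fixed in 2% PFA and stained with 5 μg/ml DAPI. Automated microscopy imaging quantified host cells and parasites separately; host cytotoxicity derived as CC50.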

Series [10] concerns T. b. brucei procyclic forms. Description: Growth of axenic cultures of T. b. brucei procyclic forms (PCFs). To be noted: axenic culture; read-out: EC50 T. b. brucei PCF. Type of series: cell-based, Trypanosoma brucei brucei.
Series [11] concerns T. cruzi epimastigotes (strain Y). As to the kind of experiment: Growth of axenic cultures of T. cruzi epimastigotes. The following applies: epimastigotes.
Method: Selected cruzain inhibitors in axenic cell cultures of Trypanosoma brucei brucei (procyclic trypomastigotes; ATCC PRA-381) and Trypanosoma cruzi (epimastigote forms; strain Y, ATCC 50832GFP) were tested. T. b. brucei is grown in SDM-79 medium, and T. cruzi is grown in ATCC medium (1029 LIT medium). Both media included fetal calf serum (10%) and penicillin/streptomycin (50 U/mL). […] T. brucei and T. cruzi (5 mL in flask cultures) at 26° C. were seeded at ˜3×10^6 cells, and diluted daily maintaining a mid-log growth phase for up to 100 hrs. Cell counts were scored using a Z2 Coulter Counter. After each cell dilution, fresh compound or an equal volume of DMSO (control samples), was supplemented into the cultures. […] Cruzain inhibitors where the highest concentration reflects the upper limit of solubilities of the inhibitors in 1% (v/v) DMSO solutions were evaluated. These inhibitors are likely to bind to proteins in fetal calf serum, and for these reasons, fresh inhibitors were added each time cells were re-fed.
Selected cruzain inhibitors were evaluated in axenic cell cultures of T. b. brucei and T. cruzi. Procyclic trypomastigotes of T. b. brucei (ATCC PRA-381) were grown in the SDM-79 medium at 26° C., and bloodstream forms (ATCC PRA-383) were grown at 37° C. in the HMI-9 medium at 5% C02. T. cruzi (epimastigote forms, strain Y, ATCC 50832GFP) was grown in the ATCC medium (1029 LIT medium). Both forms of T. b. brucei and T. cruzi were grown in media containing 10% fetal bovine serum (FBS) and penicillin/streptomycin (50 U mL^−1). […] Control samples contained equal amounts of DMSO. T. b. brucei and T. cruzi (5 mL in flask cultures) were seeded at ˜3×10^6 cells and diluted daily, maintaining a mid-log growth phase for up to 120 h. […] After each cell dilution, fresh compound or an equal volume of DMSO (control samples) was supplemented into the cultures, while maintaining a constant concentration of each inhibitor. Cell counts were scored using a Z2 Coulter Counter.
Series [12] can be described thus: Thiolation of inhibitors with glutathione, LCMS. To be noted: 1 mM glutathione, 0.5 mM compound, Tris pH 8.0, 10% DMSO, room temperature. Type of series: physicochemical. The procedure:
Samples were analyzed by HPLC-MS (as described above) by injecting 0.01 mL aliquots onto a Luna […] C18(2) 100 Å, 4.6 mm, 50 mm column (Phenomenex) using the HPLC method described in the chemistry section at 0-6 h time points. […] Integration of the chromatographic peaks of the inhibitors and their GSH adducts at each time point was used to determine the rate of GSH adduct formation.

The target in series [13] is human cathepsin S (Homo sapiens (Human), UniProt P25774). To be noted: Ref. 32; read-out: apparent IC50 Human Cathepsin S; cited from earlier work.

SMILES strings stand for the structures. Where “and” joins values, the source holds several entries; their conditions need not be identical. Equal values may be shown once. Read-outs that look alike come from different tables or passages of the source.

Chain of cruzain (P25779 123-467 limits assumed): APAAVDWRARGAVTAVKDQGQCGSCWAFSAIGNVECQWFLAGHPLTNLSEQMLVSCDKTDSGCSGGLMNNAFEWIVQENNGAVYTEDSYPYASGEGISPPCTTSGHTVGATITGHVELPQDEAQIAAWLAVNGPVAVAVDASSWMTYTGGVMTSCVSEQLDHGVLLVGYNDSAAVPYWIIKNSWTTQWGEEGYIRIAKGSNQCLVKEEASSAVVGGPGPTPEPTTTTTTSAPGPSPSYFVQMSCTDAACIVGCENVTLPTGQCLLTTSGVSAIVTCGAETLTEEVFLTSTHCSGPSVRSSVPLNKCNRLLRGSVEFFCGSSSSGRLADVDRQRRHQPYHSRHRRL
Chain of human cathepsin S (P25774 115-331): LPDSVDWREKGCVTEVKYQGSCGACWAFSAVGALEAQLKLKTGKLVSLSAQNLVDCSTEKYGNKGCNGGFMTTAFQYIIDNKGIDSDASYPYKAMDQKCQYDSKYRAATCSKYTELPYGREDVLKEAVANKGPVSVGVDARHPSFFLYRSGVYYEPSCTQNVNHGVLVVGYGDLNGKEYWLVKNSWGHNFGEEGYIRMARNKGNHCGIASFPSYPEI

Consider `CC(C)OC1Oc2ccccc2C[C@@H]1NC(=O)[C@H](Cc1ccccc1)NC(=O)N1CCN(C)CC1` (stereo partly shown) [Compound 41], for which the “transformation to 36 by CYPs” value in [1] is on record as “no transformation to 36 was observed”. In addition, the Ki is greater than 5 µM in series [2] (apparent tight-binding inhibition constant, 25° C., read-out: Ki*) and greater than 5 µM in series [2] (obtained >10 minutes following initiation of reaction by addition of enzyme, read-out: Ki* Cruzain). The results for the EC50 in series [3], in series [4] and in series [5] were greater than 20 µM, 5 µM and 14 ± 0.9 µM, respectively.

As to `CN1CCN(C(=O)N[C@@H](Cc2ccccc2)C(=O)N[C@H](/C=C/S(=O)(=O)c2ccccc2)CCc2ccccc2)CC1` [Compound K11777, reference compound], the EC50 is 0.038 ± 0.009 µM in [6] (listed as K777); 0.7 µM in series [6]; 10 to 100 µM in series [7]; 70 µM in series [8]; 2 µM and 2.3 µM and 1.7 µM in series [10]; roughly 60 µM in [11] (read-out: T. cruzi axenic culture EC50). For the same compound, the EC50 in series [5] stood at 0.09 ± 0.06 µM. The “toxicity in human dermal fibroblasts, concentration” value in [8] (concentration at which toxicity was or was not seen) came out at 70 µM. The cytotoxic concentration (CC50) was 60 to 100 µM in series [8] (human dermal fibroblasts, read-out: Human Cell Cytotoxicity CC50) and greater than 10 µM in series [9]. The “T. cruzi axenic culture EC50” value in series [11] is “poorly effective”. Also, in [12], the “Rate of Thiolation, k” value came out at 0.00467 ± 0.0067 M⁻¹ s⁻¹. Further, the IC50 in series [13] was 0.0006 µM.

Values taken from patent publication US20240150396A1 (The Texas A&M University System, priority 2021, published 2024).
